Assay results reported in patent US20190327965A1, “AGENTS AND METHODS FOR TREATMENT OF PATHOGENS” (Hexima Limited, priority 2014, published 2019).
Bridge positions count the residues as written; N and C are the ends. Peptide text beside a SMILES is read from it.

Key:
[1] = system: Colletotrichum graminicola
Saccharomyces cerevisiae = experiment: Growth inhibition by hairpin peptide alone, Saccharomyces cerevisiae; assay type: cell-based; conditions: hairpin peptide on its own
From the text: Some α-hairpinin and β-hairpin peptides show efficacy on their own against pathogens at a concentration higher than the concentration used in a combination with a plant defensin.

Compound	IC50 (Trichophyton rubrum) [µM]	IC50 (Candida albicans) [µM]	IC50 [1] [µM]	IC50 (Fusarium graminearum) [µM]	IC50 (Saccharomyces cerevisiae) [µM]
CSCC[C@@H]1NC(=O)[C@H](CCCNC(=N)N)NC(=O)[C@@H](NC(=O)[C@H](Cc2c[nH]c3ccccc23)NC(=O)[C@H](CCC(N)=O)NC(=O)[C@H](CC(C)C)NC(=O)[C@H](CC(=O)O)NC(=O)CNC(=O)[C@@H](N)CCCCN)CSSC[C@@H](C(=O)N[C@@H](CCCNC(=N)N)C(=O)N[C@@H](CCC(N)=O)C(=O)N[C@@H](CCCNC(=N)N)C(=O)N[C@@H](Cc2c[nH]cn2)C(=O)N[C@@H](CCCNC(=N)N)C(=O)NCC(=O)O)NC(=O)[C@H](CCC(=O)O)NC(=O)[C@H](CCCNC(=N)N)NC(=O)[C@H](CCC(=O)O)NC(=O)[C@@H]2CSSC[C@H](NC(=O)CNC1=O)C(=O)N[C@@H](CCC(N)=O)C(=O)N[C@@H](Cc1c[nH]c3ccccc13)C(=O)N[C@@H](CCC(N)=O)C(=O)N[C@@H](Cc1ccc(O)cc1)C(=O)NCC(=O)N[C@@H](CCCCN)C(=O)N[C@@H](CC(=O)O)C(=O)N[C@@H](CCC(N)=O)C(=O)NCC(=O)N[C@@H](CCCNC(=N)N)C(=O)N[C@@H](CCCNC(=N)N)C(=O)N[C@@H](CO)C(=O)N[C@@H](CCC(=O)O)C(=O)N2 [Sit_HPN_100A] (H-KGDLQWCRMGCQWQYGKDQGRRSECERECRQRHRG-OH; disulfide 7-29, 11-25 (inferred); N-terminus and C-terminus assumed)	20	8	14	8	8
CC(C)[C@@H]1NC(=O)[C@H](CCCNC(=N)N)NC(=O)[C@H](Cc2ccccc2)NC(=O)[C@@H](NC(=O)[C@H](Cc2c[nH]c3ccccc23)NC(=O)[C@H](CCCNC(=N)N)NC(=O)[C@@H](N)CCCNC(=N)N)CSSC[C@@H](C(=O)N[C@@H](CCCNC(=N)N)C(N)=O)NC(=O)[C@H](CCCCN)NC(=O)[C@H](CCCNC(=N)N)NC(=O)[C@H](Cc2ccc(O)cc2)NC(=O)[C@@H]2CSSC[C@H](NC1=O)C(=O)N[C@@H](Cc1ccc(O)cc1)C(=O)N[C@@H](CCCNC(=N)N)C(=O)NCC(=O)N[C@@H](Cc1ccccc1)C(=O)N2 [Polyphemusin I] (H-RRWCFRVCYRGFCYRKCR-NH2; disulfide 4-17, 8-13; N-terminus and C-terminus assumed)	1	4	6	3	
